# From PMC4923153, “Protection of Primary Dopaminergic Midbrain Neurons by GPR139 Agonists Supports Different Mechanisms of MPP^+ and Rotenone Toxicity” (Frontiers in Cellular Neuroscience, 2016)
# Where “and” joins values, the source holds several entries; their conditions need not be identical. Equal values may be shown once. Read-outs that look alike come from different tables or passages of the source.
# Experiments:
# [1] = system: differentiated SH-SY5Y neurons; conditions: 24 h incubation; ref Giordano et al., 2012; cited from earlier work
# [2] = system: SH-SY5Y cells; set-up: method as in Song et al., 2012; conditions: ref Song et al., 2012; cited from earlier work
# [3] = system: primary DA midbrain neurons; type: cell-based, mice; conditions: 24 h
# Protocol: Experiments were conducted in accordance with the ethical guidelines of H. Lundbeck A/S and the Danish legislation of animal use for scientific procedures. Cell culture was basically performed as described (Nagel et al., [2008]), with few modifications. Briefly, the mesencephalon floor was dissected from embryonic day (E) 13 mice, tissue pieces collected in HBBS, transferred to 0.1% trypsin, 0.05% DNAse (Sigma-Aldrich DN25–1G) and incubated at 37°C in a humidified atmosphere with 5% CO2 for 20 min; washed in DNAse, homogenized and centrifuged at 200× g, resuspended in medium (DMEM (Gibco 41965–039), 10% FCS, 1% P/S (Gibco, 15140–122), l.5% HEPES (Gibco, 15630–056), 1% Sodium Pyruvate (Gibco, 11360–039)) and plated on poly-L-lysine coated 96-well dishes. The medium was switched to neurobasal medium after 90 min (neurobasal (Gibco 21103–049) with 1% P/S, 2% B27 (Gibco, 17504–044), 1.25% 0.5 mM L-glutamine (Gibco, 25030–024)). […] Plates were stored at 4°C until tyrosine-hydroxylase-positive (TH-positive) neurons were counted using a Thermo Scientific Cellomics® ArrayScan® VTI HCS Reader. […] To ensure that only healthy primary cultures were assessed, we furthermore excluded experiments with total cell counts below Mean minus standard deviation (SD) of the summarized experiments. […]
# [4] = biological target: DAT (Homo sapiens, UniProt Q01959); set-up: method as in Shi et al., 2011; conditions: 10 μM; ref Shi et al., 2011; cited from earlier work
# DAT, sequence (Q01959 whole entry, species assumed): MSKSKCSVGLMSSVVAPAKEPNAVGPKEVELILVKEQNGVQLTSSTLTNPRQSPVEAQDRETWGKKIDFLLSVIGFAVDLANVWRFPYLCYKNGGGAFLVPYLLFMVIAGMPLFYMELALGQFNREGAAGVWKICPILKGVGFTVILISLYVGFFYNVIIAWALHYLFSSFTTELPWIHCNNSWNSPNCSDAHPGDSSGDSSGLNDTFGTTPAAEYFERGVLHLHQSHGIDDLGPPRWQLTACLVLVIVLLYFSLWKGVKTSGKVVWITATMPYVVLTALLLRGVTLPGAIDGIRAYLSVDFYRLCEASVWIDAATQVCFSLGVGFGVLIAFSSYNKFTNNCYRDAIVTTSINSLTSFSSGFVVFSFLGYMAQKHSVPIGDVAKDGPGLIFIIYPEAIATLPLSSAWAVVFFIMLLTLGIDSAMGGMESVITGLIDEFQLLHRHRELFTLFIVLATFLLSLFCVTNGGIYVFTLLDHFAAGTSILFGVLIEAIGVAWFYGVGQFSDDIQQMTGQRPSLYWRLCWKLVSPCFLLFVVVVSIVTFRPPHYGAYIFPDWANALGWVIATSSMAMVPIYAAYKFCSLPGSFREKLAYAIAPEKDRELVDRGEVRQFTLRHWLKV
# [5] = biological target: norepinephrine transporter (Homo sapiens, UniProt P23975); set-up: method as in Shi et al., 2011; conditions: 10 μM; ref Shi et al., 2011; cited from earlier work
# norepinephrine transporter, sequence (P23975 whole entry, species assumed): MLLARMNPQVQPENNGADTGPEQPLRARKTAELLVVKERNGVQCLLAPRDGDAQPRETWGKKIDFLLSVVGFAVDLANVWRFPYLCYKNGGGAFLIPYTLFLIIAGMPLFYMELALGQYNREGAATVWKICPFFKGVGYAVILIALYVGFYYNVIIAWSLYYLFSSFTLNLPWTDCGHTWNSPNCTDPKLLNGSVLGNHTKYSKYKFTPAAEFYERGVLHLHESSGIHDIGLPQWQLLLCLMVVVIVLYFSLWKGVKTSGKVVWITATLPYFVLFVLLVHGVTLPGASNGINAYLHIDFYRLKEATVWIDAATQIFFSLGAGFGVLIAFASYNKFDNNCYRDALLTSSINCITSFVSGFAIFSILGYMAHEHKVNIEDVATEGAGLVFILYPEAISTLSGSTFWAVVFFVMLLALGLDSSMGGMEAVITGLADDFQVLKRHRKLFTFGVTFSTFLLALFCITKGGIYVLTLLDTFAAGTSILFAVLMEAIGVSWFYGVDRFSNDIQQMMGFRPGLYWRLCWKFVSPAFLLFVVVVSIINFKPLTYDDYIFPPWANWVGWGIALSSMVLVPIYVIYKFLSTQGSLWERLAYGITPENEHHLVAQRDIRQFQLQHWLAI
# [6] = biological target: T1, human GPR139 receptor (Homo sapiens, UniProt Q6DWJ6); set-up: method as in Shi et al., 2011; conditions: Ca2+ mobilization; ref Shi et al., 2011; read-out: EC50 (GPR139 agonist); cited from earlier work
# T1 construct: expressed in transfected cells; host or cells: CHO-K1
# T1 sequence (Q6DWJ6 1-353): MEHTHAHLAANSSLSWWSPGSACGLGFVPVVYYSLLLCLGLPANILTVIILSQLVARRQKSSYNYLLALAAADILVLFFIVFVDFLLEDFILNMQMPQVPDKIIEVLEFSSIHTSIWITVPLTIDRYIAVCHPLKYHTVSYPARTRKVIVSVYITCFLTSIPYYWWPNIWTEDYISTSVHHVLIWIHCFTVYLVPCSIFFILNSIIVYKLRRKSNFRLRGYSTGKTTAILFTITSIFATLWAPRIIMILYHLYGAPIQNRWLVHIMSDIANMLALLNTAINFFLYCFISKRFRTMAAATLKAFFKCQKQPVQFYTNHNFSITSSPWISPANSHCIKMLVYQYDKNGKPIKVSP
# [7] = system: primary DA midbrain neurons; test: Protection of primary DA midbrain neurons against rotenone toxicity (TH-positive neuron count); type: cell-based, mice; conditions: 1 μM agonist 1 h, 0-100 nM rotenone 24 h, n = 4
# Protocol: (§1) Experiments were conducted in accordance with the ethical guidelines of H. Lundbeck A/S and the Danish legislation of animal use for scientific procedures. Cell culture was basically performed as described (Nagel et al., [2008]), with few modifications. […] Plates were stored at 4°C until tyrosine-hydroxylase-positive (TH-positive) neurons were counted using a Thermo Scientific Cellomics® ArrayScan® VTI HCS Reader. […] To ensure that only healthy primary cultures were assessed, we furthermore excluded experiments with total cell counts below Mean minus standard deviation (SD) of the summarized experiments. […]
# Mesencephalic cultures were treated with 1 μM of either one of the GPR139 agonists compound 1 ( [drawing 13] ), compound 2 ( [drawing 14] ), or compound 3 ( [drawing 15] ), or vehicle ( [drawing 16] ) for 1 h before exposing them to 0–100 nM of rotenone. […] TH-positive neurons were counted and normalized to control numbers (100%).
# [8] = system: primary DA midbrain neurons; test: Protection of primary DA midbrain neurons against 6-OHDA toxicity (TH-positive neuron count); type: cell-based, mice; conditions: 1 μM agonist 1 h, 0-50 μM 6-OHDA 24 h
# Protocol: as §1
# Neuronal midbrain cultures were pretreated with 1 μM of either one of the agonists compound 1 ( [drawing 9] ), compound 2 ( [drawing 10] ), or compound 3 ( [drawing 11] ), or vehicle ( [drawing 12] ) for 1 h, followed by treatment with the indicated concentrations of 6-hydroxydopamine (6-OHDA) for 24 h. TH-positive neurons were counted and normalized to control numbers.
# [9] = set-up: method as in Shi et al., 2011; conditions: ref Shi et al., 2011; cited from earlier work
# [10] = system: primary DA midbrain neurons; test: Protection of primary DA midbrain neurons against MPP+ toxicity (TH-positive neuron count); type: cell-based, mice
# Protocol: Experiments were conducted in accordance with the ethical guidelines of H. Lundbeck A/S and the Danish legislation of animal use for scientific procedures. Cell culture was basically performed as described (Nagel et al., [2008]), with few modifications. Briefly, the mesencephalon floor was dissected from embryonic day (E) 13 mice, tissue pieces collected in HBBS, transferred to 0.1% trypsin, 0.05% DNAse (Sigma-Aldrich DN25–1G) and incubated at 37°C in a humidified atmosphere with 5% CO2 for 20 min; washed in DNAse, homogenized and centrifuged at 200× g, resuspended in medium (DMEM (Gibco 41965–039), 10% FCS, 1% P/S (Gibco, 15140–122), l.5% HEPES (Gibco, 15630–056), 1% Sodium Pyruvate (Gibco, 11360–039)) and plated on poly-L-lysine coated 96-well dishes. The medium was switched to neurobasal medium after 90 min (neurobasal (Gibco 21103–049) with 1% P/S, 2% B27 (Gibco, 17504–044), 1.25% 0.5 mM L-glutamine (Gibco, 25030–024)). After 6 days in vitro (DIV), cultures were treated with 1 μM of three different GPR139 agonists and in some experiments, concomitantly, with 10 μM of the antagonist for1 h, before exposing them to 0–1 μM MPP^+, 0–50 μM 6-OHDA or 0–100 nM rotenone for 24 h. For the MPP^+ treated cultures, it was also tested whether the effect of the GPR139 agonists could be blocked by concomitantly applying 10 μM GPR139 antagonist (IC50 3 μM). Subsequently, cells were fixed in 4% PFA/PBS for 10 min, washed with PBS, incubated in 0.5% BSA/0.1% Triton-X/5% porcine serum for 20 min, and incubated for 24 h in rabbit anti-tyrosine hydroxylase antibodies (1:1000 in PBS, Millipore AB152); washed 2 × 5 min in PBS. Secondary antibodies (Alexa 488 rabbit) were applied 1:200 in PBS with 0.2 μg/ml Hoechst dye for 1 h and washed 2 × 5 min in PBS. One drop of DAKO fluorescent mounting medium were applied into each well. Plates were stored at 4°C until tyrosine-hydroxylase-positive (TH-positive) neurons were counted using a Thermo Scientific Cellomics® ArrayScan® VTI HCS Reader. Results were normalized against control condition and compared. Experiments were only included in the evaluation if at least 30% cell death was induced at the highest toxin concentration compared to non-treated control wells. To ensure that only healthy primary cultures were assessed, we furthermore excluded experiments with total cell counts below Mean minus standard deviation (SD) of the summarized experiments. […]
# To examine whether GPR139 agonists protect against toxin-induced DA cell death, we first treated cultured DA midbrain neurons with the GPR139 agonists and MPP^+ . Subsequently, we determined survival of TH-positive neurons.
# Figure 8 Three different GPR139 surrogate agonists protect primary dopaminergic (DA) midbrain neurons against 1-methyl-4-phenyl-pyridinium ionMPP^+ toxicity. […] TH-positive neurons were counted and normalized to numbers under control conditions. […] Each data point is calculated from 12 (0 μM and 1 μM MPP^+ concentrations); 4 (0.125 μM); 7 (0.25 μM); or 8 (0.5 μM) independent measurements.
# Primary midbrain cultures were pretreated with the indicated amount of GPR139 agonist compound 3 and with either vehicle ( [drawing 5] ), or 1 μM MPP^+ ( [drawing 6] ); or MPP^+ with 10 μM of the antagonist compound 4 ( [drawing 7] ), or with the antagonist compound 4 alone ( [drawing 8] ). The number of TH-positive neurons was determined 24 h later and normalized to control conditions. […]
# [11] = biological target: T1, human GPR139 receptor; test: GPR139 calcium mobilization assay (CHO-K1 cells stably expressing the receptor); type: cell-based; conditions: inhibition of agonist-induced stimulation (compound 1 at EC85); read-out: IC50 (GPR139 antagonist)
# Protocol: EC50 and IC50 for all compounds were determined as described (Shi et al., [2011]).
# All compounds were further characterized using GPR139-based Ca^2+ mobilization assays (Figure 5).
# Figure 5 Additional characterization of GPR139 compounds using kinetic fluorescence measurements and concentration-response determination in calcium mobilization assays. (A–D) Examples for the kinetic of relative fluorescence units (RFU) for compound 1 and 4 and related controls, involving a two-step addition protocol. (A) Cellular fluorescence response to addition of buffer (approximately at time 0:00 min) and a second addition of buffer at 3:20 min. (B) Cellular fluorescence response to addition of the Ca^2+ ionophore and reference compound for complete release of Ca^2+ from intracellular stores, ionomycin. (C) Cellular response to addition of 10 μM compound 1 at time 0:00. (D) Cellular fluorescence in response to antagonist compound 4 (at 0:00, 50 μM) and addition of agonist compound 1 at EC85 concentration. […]
# Standard molecular cloning techniques were used to generate Chinese hamster ovary (CHO-K1) cells stably expressing the human GPR139 receptor. […] Calcium flux was measured using a Hamamatsu FDSS7000 imaging-based plate reader (Hamamatsu Photonics) using 480 nm excitation light and emitted fluorescent light passed through a 525 nm emission filter and detected by a CCD camera. […]
compound,measurement,setting,value
"NCCc1cc(O)c(O)cc1O [6-OHDA, 6-hydroxydopamine]",concentration giving 50% cell death,[1],100 µM
COc1ccc(CCc2cc(OC)c(O)c(OC)c2)cc1OC [Chrysotoxine],antagonism of MPP+ toxicity,[2],could antagonize
same,antagonism of rotenone toxicity,[2],not rotenone
"C[n+]1ccc(-c2ccccc2)cc1 [MPP^+, 1-methyl-4-phenylpyridinium]",average DA neuronal cell death,[3]; 1 μM MPP+,40%
same,concentration giving 50% cell death,[1],5000 µM
"COc1cc(OC)cc(C(=O)NNC(=O)Nc2cccc3ccccc23)c1 [compound 1, 2-(3,5-Dimethoxybenzoyl)-N-(1-naphthyl)-hydrazinecarboxamide]",inhibition of binding to the DAT,[4],4%
same,inhibition of binding to the norepinephrine transporter,[5],−8%
same,EC50,[6],0.039 µM
same,protection against rotenone toxicity,[7],do not protect
same,protection against 6-OHDA toxicity,[8],do not protect
same,ADME properties for in vivo testing,[9],does not hold the ADME properties necessary for in vivo testing
same,protection against MPP+ toxicity,"[10]; 1 μM agonist 1 h, 1 μM MPP+ 24 h, p ≤ 0.05 vs vehicle",significant
"Cc1c(CC(Cl)(Cl)Cl)c2c(n1-c1ccc(F)cc1)CCCC2=O [compound 4, 1-(4-Fluoro-phenyl)-2-methyl-3-(2,2,2-trichloro-ethyl)-1,5,6,7-tetrahydro-indol-4-one, reference compound]",IC50,[11],7.4 µM and 3 µM
same,effect of antagonist on protection by the agonists against MPP+,"[10]; 10 μM antagonist co-applied with agonist, 1 μM MPP+",blocked the protective effect
same,effect of antagonist alone on DA cell survival,"[10]; 10 μM antagonist, no MPP+",did not have an effect
C=C(C)[C@H]1Cc2c(ccc3c2O[C@@H]2COc4cc(OC)c(OC)cc4[C@@H]2C3=O)O1 [rotenone],average DA neuronal cell death,[3]; 100 nM rotenone,60%
same,concentration giving 50% cell death,[1],0.005 µM
